According to patent publication US11690915:
Like-named read-outs stand apart in the source and are kept apart here.

How the values were obtained:
[1] = 18-membered ring
[2] = from CC(C)(CO)Cc1c(-c2ccnc(N3CCN(C(=O)OCc4ccccc4)CC3)c2)n(C(C)(C)C#N)c2ccc(-c3csc(C[C@H](NC(=O)OC(C)(C)C)C(=O)N4CCC[C@@H](C(=O)O)N4)n3)cc12; ester bond; 18-membered ring; EDC/HOBt/DIEA; DCM; 1.05 mM

CO[C@@H](C)c1ncccc1-c1c2c3cc(ccc3n1CCOC1CCOCC1)-c1csc(n1)C[C@H](NC(=O)OC(C)(C)C)C(=O)N1CCC[C@H](N1)C(=O)OCC(C)(C)C2
ring closure, isolated yield ([1]; from CO[C@@H](C)c1ncccc1-c1c(CC(C)(C)CO)c2cc(-c3csc(C[C@H](NC(=O)OC(C)(C)C)C(=O)N4CCC[C@@H](C(=O)O)N4)n3)ccc2n1CCOC1CCOCC1, ester bond, EDC/HOBt/DIEA, DCM, 7.0 mM): 68%

CC1(C)COC(=O)[C@@H]2CCCN(N2)C(=O)[C@@H](NC(=O)OC(C)(C)C)Cc2nc(cs2)-c2ccc3c(c2)c(c(-c2ccnc(N4CCN(C(=O)OCc5ccccc5)CC4)c2)n3C(C)(C)C#N)C1
ring closure, crude yield [2]: 52%

CCn1c(-c2cc(N3CCN(C(=O)OCc4ccccc4)CC3)cnc2[C@H](C)OC)c2c3cc(ccc31)-c1csc(n1)C[C@H](NC(=O)OC(C)(C)C)C(=O)N1CCC[C@H](N1)C(=O)OCC(C)(C)C2
ring closure, isolated yield ([1]; from CCn1c(-c2cc(N3CCN(C(=O)OCc4ccccc4)CC3)cnc2[C@H](C)OC)c(CC(C)(C)CO)c2cc(-c3csc(C[C@H](NC(=O)OC(C)(C)C)C(=O)N4CCC[C@@H](C(=O)O)N4)n3)ccc21, ester bond, EDC/HOBt/DIEA, MeCN, 10.3 mM, 25.0 °C): 54.8%

CCn1c(-c2cccnc2[C@H](C)OC)c2c3cc(ccc31)-c1csc(n1)[C@@H](OCC(F)F)[C@H](NC(=O)OC(C)(C)C)C(=O)N1CCC[C@H](N1)C(=O)OCC(C)(C)C2
ring closure, isolated yield ([1]; from CCn1c(-c2cccnc2[C@H](C)OC)c(CC(C)(C)COC(=O)[C@@H]2CCCN(C(=O)[C@@H](NC(=O)OC(C)(C)C)[C@H](OCC(F)F)c3nc(Br)cs3)N2)c2cc(B3OC(C)(C)C(C)(C)O3)ccc21, cc_pd bond, Pd(DtBPF)Cl2/K3PO4, toluene/1,4-dioxane/H2O 3:1:1, 10.0 mM, 60.0 °C, 1.0 h): 59%

CC1(C)COC(=O)[C@@H]2CCCN(N2)C(=O)[C@@H](NC(=O)OC(C)(C)C)Cc2nc(cs2)-c2ccc3[nH]c(I)c(c3c2)C1
ring closure, isolated yield ([1]; from CC(C)(CO)Cc1c(I)[nH]c2ccc(-c3csc(C[C@H](NC(=O)OC(C)(C)C)C(=O)N4CCC[C@@H](C(=O)O)N4)n3)cc12, ester bond, EDC/HOBt/DIEA, DCM, 17.6 mM): 45.9%
